Results on three compounds are retold here after patent US20050153870A1, “Medicinal composition for diagnosis, prevention, or therapy of multiple risk factor syndrome” (priority 2002, published 2005).

Marks after values point to notes of the source that are not given here.

Test [1] concerns db/db mice. The test is described as follows: Blood sugar decreasing effect in db/db mice (Example 7). It is filed as in vivo, mouse. To be noted: for Body weight / Blood sugar level: in feed for a week (MAC 0.05%, AS-103 0.05%, AR-610 0.1%, AF 0.4%, AC 0.05%); for Body weight: control group 44.6 ± 0.9; for Blood sugar level: control group 549.8 ± 21.8; for Blood sugar level, change vs control group / Body weight, change vs control group: in feed for a week, contents as in table. On the procedure:
(§1) Powered feed to which ascofuranone (AF) and ascochlorin (AC) as well as its derivatives, 4-0-methylascochlorin (MAC), 4-0-carboxymethylascochlorin (AS-6), and 4-0-nicotinoyl ascochlorin (AS-103) were added to feed at the proportions shown in the table, and the feed were given to db/db mice for a week and then analyzed for blood sugar decreasing effect (8 mice/group).

The subject of test [2] is Anesthetized rat. The test is described as follows: Blood pressure decreasing effect, acute test. It is filed as in vivo. Particulars: 2 mg/kg perorally. On the procedure: Compounds of this series has an antihypertensive effect in various types of test animal models. The antihypertensive effect is confirmed not only in an acute test, in which arterial blood pressure of anesthetized rats and dogs is measured, but also in a chronic test using DOCA hypertensive rats, which are prepared by excising one of the kidneys and administering mineral corticoid and saline thereto, naturally-occurring hypertensive rats, which is an animal morbid model of essential hypertensive disease, and ob/ob mice, which are hereditary diabetic obese […].

Test [3] relates to Lean. The test is described as follows: Body weight and blood sugar in Lean mice (Example 7). The format is in vivo, mouse. Particulars: for Body weight / Blood sugar level: in feed for a week (MAC 0.05%, AS-103 0.05%, AR-610 0.1%, AF 0.4%, AC 0.05%); for Body weight: control group 20.9 ± 0.8; for Blood sugar level: control group 211.2 ± 7.8; for Blood sugar level, change vs control group / Body weight, change vs control group: in feed for a week, contents as in table. As to the method:
[The procedure below names another variant; the source lists this variant under the same test.] as §1

For test [4], the system named is Mouse, rat, beagle dog, quail, DOCA hypertension rat. Put plainly: Serum cholesterol decreasing effect. It is filed as in vivo. To be noted: incl. rat and quail raised with hyperfat feed. On the procedure: The quails are raised by giving a feed containing 2% cholesterol for 9 months to develop hypercholesteremia, and, in the case of the rats, mineral corticoid and saline are administered to allow them to develop heart and blood vessel disease and then hypercholesteremia.

Test [5] deals with Rat. The test is described as follows: Glucogenesis in the liver. Particulars: perorally. It is filed as in vivo. From the text: Compounds of this series suppresses hepatic glucogenesis which is induced by administration of dexamethazon to a rat. For this reason, it antagonizes the action of glucocorticoid in vivo. The compound further has an effect of suppressing steroid diabetes characterized by polydipsia and polyurea and urine sugar excretion induced by administering cortisol to a rat. […] These facts strongly support that compounds of this series is useful in preventing and/or treating visceral fat syndrome.

The test system of test [6] is Mouse. The test is described as follows: Appetite suppressing effect. The format is in vivo. Particulars: mouse fasted 48 hours; 1 to 2 mg/kg perorally one hour before feeding; feed given for 2 hours.
Test [7] deals with SHR rat of high-incidence fat deposition group. Put plainly: Fat deposition on the mesenteric artery. Particulars: perorally. It is filed as in vivo.

On to `CC(/C=C/[C@@]1(C)[C@H](C)CCC(=O)[C@@H]1C)=C\Cc1c(O)c(Cl)c(C)c(C=O)c1O` [AC, ascochlorin], for which, in test [1], the Body weight is 38.9 ± 1.8 g; the Blood sugar level worked out at 262.1 ± 11.8 mg/dL; the “Blood sugar level, change vs control group” value (from here on “Blood sugar level, change”) is given as −52.3%**; the “Body weight, change vs control group” value is recorded as −12.8%**. Further, the “decrease of average blood pressure of the carotid artery” value in test [2] was “decreases by 20 to 30 mmHg”. In test [3], the Body weight turned out to be 16.1 ± 0.3 g; the Blood sugar level is 184.8 ± 10.9 mg/dL; the “Blood sugar level, change” value is −12.5%**; the “Body weight, change vs control group” value is −23.0%**. Also, in test [4], the “serum cholesterol decreasing effect” value is “carboxymethylascochlorin, and ascofuranone exhibits an effect of decreasing serum”. Moreover, in test [5], the “glucogenesis performed in the liver” value is “performed in the liver is suppressed”. Also, the “amount of feed (appetite suppressing effect)” value in test [6] was “feed is suppressed in a dose dependent manner”.
In the case of `C/C(=C\Cc1c(O)c(Cl)c(C)c(C=O)c1O)CC/C=C(\C)[C@@H]1CC(=O)C(C)(C)O1` [AF, ascofuranone], in test [1], the Body weight stood at 44.8 ± 1.4 g; the Blood sugar level was determined as 385.5 ± 40.9 mg/dL; the “Blood sugar level, change” value is listed as −29.9%**; the “Body weight, change vs control group” value is on record as “ns”. Also, in test [3], the Body weight was 21.8 ± 0.4 g; the Blood sugar level is given as 161.1 ± 8.3 mg/dL; the “Blood sugar level, change” value was −23.7%**; the “Body weight, change vs control group” value was “ns”. The “serum cholesterol decreasing effect” value in test [4] is “carboxymethylascochlorin, and ascofuranone exhibits an effect of decreasing serum”. For the same compound, in test [7], the “fat deposition in a ring form on the mesenteric artery” value was “mesenteric artery, disappearance of fat deposition is accelerated”.
With `CC(/C=C/C1(C)C(C)CCC(=O)C1C)=C\Cc1c(O)c(C=O)c(C)c(Cl)c1OC(=O)c1cccnc1` (stereo not drawn) [AS-103, 4-0-nicotinoyl ascochlorin], in test [1], the Body weight is 42.0 ± 1.9 g; the Blood sugar level is on record as 331.3 ± 45.2 mg/dL; the “Blood sugar level, change” value is on record as −39.7%**; the “Body weight, change vs control group” value was “ns”. Also, in test [3], the Body weight is given as 18.4 ± 0.3 g; the Blood sugar level is 181.8 ± 7.6 mg/dL; the “Blood sugar level, change” value is listed as −13.9%*; the “Body weight, change vs control group” value was −12.0%**.
